Measurements from ChEMBL document CHEMBL5104091, “Pyridazine as a privileged structure: An updated review on anticancer activity of pyridazine containing bioactive molecules” (Eur J Med Chem, 2021).
pIC50: −log10 of the molar value. In brackets after ≈: the same amount, converted by molar mass.

Legend:
[1] = target: Hepatocyte growth factor receptor (Homo sapiens, UniProt P08581); experiment: Inhibition of c-Met (unknown origin) incubated for 20 to 30 mins in presence of [33P]-ATP by scintillation counter analysis
[2] = Cytotoxicity against human CEM cells assessed as cell growth inhibition measured after 48 to 72 hrs by hoechst and PI staining based analysis; type: toxicity; conditions: CCRF-CEM cells, time 48-72 hrs
MDA-MB-231 [3] = experiment: Cytotoxicity against human MDA-MB-231 cells assessed as cell growth inhibition measured after 48 to 72 hrs by hoechst and PI staining based analysis; type: functional; conditions: time 48-72 hrs
MCF7 [4] = experiment: Antiproliferative activity against human MCF7 cells assessed as cell growth inhibition; type: functional, cell-based
A549 = experiment: Antiproliferative activity against human A549 cells assessed as cell growth inhibition; type: functional, cell-based
[5] = target: Tyrosine-protein kinase BTK (Homo sapiens, UniProt Q06187); experiment: Inhibition of BTK (unknown origin) incubated for 30 mins in presence of ATP by fluorescence based analysis
Tyrosine-protein kinase BTK, sequence (Q06187 whole entry): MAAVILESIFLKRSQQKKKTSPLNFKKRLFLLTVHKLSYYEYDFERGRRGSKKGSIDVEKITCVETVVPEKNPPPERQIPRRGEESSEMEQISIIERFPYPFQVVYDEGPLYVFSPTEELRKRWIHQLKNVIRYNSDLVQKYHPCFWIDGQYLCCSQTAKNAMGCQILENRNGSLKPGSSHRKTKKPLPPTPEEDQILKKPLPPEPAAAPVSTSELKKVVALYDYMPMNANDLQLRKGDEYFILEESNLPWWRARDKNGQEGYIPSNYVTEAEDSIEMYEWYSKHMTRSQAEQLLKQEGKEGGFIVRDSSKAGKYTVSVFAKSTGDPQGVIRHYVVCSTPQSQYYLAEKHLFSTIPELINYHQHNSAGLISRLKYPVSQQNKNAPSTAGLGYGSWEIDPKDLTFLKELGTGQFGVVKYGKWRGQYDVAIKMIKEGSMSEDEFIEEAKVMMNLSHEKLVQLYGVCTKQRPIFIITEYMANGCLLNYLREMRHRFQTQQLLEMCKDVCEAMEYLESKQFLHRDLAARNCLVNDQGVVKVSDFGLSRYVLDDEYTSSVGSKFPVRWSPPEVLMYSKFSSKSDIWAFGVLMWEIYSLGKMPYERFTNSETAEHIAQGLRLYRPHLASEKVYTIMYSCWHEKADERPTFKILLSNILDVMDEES

TMD8 = experiment: Cytotoxicity against human TMD8 cells assessed as cell growth inhibition measured after 72 hrs by WST-1 assay; type: functional, cell-based; conditions: TMD8, 72 h
HepG2 = experiment: Antiproliferative activity against human HepG2 cells assessed as inhibition of cell growth measured after 48 hrs by MTT assay; type: functional, cell-based; conditions: HepG2, 48 h
MCF7 [6] = experiment: Antiproliferative activity against human MCF7 cells assessed as cell growth inhibition measured after 48 hrs by MTT assay; type: functional, cell-based; conditions: MCF7, 48 h
MDA-MB-436 = experiment: Antiproliferative activity against human MDA-MB-436 cells assessed as cell growth inhibition measured after 72 hrs by MTT assay; type: functional, cell-based; conditions: MDA-MB-436, 72 h
PC-3 [7] = experiment: Antiproliferative activity against human PC3 cells assessed as cell growth inhibition; type: functional
K562 = experiment: Antiproliferative activity against human K562 cells assessed as cell growth inhibition; type: functional
MCF7 [8] = experiment: Cytotoxicity against human MCF7 cells assessed as cell growth inhibition measured after 48 hrs by MTT assay; type: functional, cell-based; conditions: MCF7, 48 h
CCRF-SB = experiment: Cytotoxicity against human CCRF-SB cells assessed as cell growth inhibition measured after 48 hrs by MTT assay; type: functional, cell-based
NALM-6 = experiment: Cytotoxicity against human NALM-6 cells assessed as cell growth inhibition measured after 48 hrs by MTT assay; type: functional, cell-based; conditions: NALM-6, 48 h
HCT-116 = experiment: Cytotoxicity against human HCT-116 cells assessed as cell growth inhibition; type: functional, cell-based
A-375 = experiment: Cytotoxicity against human A-375 cells assessed as cell growth inhibition; type: functional, cell-based
COLO 205 = experiment: Cytotoxicity against human COLO 205 cells assessed as cell growth inhibition; type: functional, cell-based
HUVEC = experiment: Antiproliferative activity against VEGF-stimulated human HUVEC cells assessed as cell growth inhibition at 10 uM incubated for 72 hrs by resazurin dye based AlamarBlue assay relative to control; type: functional
[9] = target: T1, Poly [ADP-ribose] polymerase 1 (Homo sapiens, UniProt P09874); experiment: Inhibition of PARP1 (unknown origin) by colorimetric assay
T1 sequence (P09874 whole entry): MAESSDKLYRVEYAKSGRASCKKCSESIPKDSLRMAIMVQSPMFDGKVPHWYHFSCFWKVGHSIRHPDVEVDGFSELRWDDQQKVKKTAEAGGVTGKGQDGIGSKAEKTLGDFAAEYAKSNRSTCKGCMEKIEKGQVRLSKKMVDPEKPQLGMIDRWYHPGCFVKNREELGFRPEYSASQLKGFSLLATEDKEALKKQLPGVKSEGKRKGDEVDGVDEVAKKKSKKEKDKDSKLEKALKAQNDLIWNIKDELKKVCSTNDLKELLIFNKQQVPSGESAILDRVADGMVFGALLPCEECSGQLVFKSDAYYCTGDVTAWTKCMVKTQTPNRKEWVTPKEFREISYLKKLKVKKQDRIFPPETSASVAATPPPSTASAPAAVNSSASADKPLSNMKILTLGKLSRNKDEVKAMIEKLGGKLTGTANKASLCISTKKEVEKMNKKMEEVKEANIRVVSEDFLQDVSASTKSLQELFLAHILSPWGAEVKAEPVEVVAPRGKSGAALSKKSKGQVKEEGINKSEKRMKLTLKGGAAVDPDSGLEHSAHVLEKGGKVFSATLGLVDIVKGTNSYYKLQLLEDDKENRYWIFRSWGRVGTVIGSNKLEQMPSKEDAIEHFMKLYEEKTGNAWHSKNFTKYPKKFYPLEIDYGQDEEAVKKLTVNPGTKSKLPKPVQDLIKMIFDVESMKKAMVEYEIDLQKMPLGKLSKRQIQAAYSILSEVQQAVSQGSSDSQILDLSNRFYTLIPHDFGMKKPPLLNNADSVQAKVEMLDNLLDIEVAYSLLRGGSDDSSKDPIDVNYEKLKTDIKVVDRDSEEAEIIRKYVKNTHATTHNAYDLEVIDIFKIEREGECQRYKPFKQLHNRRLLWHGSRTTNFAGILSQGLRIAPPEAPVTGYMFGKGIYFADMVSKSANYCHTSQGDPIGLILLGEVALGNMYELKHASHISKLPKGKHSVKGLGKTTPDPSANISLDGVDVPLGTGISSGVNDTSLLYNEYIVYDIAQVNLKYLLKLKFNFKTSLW

[10] = target: Protein deacetylase HDAC6 (Homo sapiens, UniProt Q9UBN7); experiment: Inhibition of HDAC6 (unknown origin) measured after 15 mins by fluorescence based assay
Protein deacetylase HDAC6, sequence (Q9UBN7 whole entry): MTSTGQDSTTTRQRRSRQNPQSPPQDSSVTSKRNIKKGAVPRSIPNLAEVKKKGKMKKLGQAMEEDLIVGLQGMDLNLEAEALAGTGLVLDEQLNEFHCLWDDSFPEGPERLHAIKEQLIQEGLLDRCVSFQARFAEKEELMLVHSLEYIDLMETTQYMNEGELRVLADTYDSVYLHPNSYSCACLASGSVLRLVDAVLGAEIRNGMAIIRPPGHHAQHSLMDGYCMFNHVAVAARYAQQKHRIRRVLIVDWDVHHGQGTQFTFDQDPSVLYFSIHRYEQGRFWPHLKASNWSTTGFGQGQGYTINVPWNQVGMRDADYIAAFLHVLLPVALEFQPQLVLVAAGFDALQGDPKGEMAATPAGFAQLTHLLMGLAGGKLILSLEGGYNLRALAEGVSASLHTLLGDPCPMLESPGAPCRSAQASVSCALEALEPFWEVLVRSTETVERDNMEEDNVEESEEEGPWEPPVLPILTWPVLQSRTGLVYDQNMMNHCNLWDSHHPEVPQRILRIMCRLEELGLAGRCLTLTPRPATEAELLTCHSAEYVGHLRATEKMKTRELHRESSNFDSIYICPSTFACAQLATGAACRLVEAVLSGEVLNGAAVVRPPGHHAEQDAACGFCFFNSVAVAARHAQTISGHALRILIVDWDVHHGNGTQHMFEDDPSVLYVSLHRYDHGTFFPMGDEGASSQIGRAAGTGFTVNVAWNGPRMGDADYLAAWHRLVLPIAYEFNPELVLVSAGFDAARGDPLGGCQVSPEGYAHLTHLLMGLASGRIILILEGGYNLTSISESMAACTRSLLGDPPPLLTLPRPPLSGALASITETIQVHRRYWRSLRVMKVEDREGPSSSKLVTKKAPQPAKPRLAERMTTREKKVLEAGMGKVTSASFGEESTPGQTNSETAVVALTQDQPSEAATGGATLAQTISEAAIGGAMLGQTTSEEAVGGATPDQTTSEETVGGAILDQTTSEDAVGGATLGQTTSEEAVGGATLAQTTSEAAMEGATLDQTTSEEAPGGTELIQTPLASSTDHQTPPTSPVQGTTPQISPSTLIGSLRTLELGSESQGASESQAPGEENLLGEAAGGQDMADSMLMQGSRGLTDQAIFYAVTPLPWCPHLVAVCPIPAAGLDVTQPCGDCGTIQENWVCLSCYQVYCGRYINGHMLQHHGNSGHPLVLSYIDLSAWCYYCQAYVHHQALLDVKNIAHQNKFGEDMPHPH

MDA-MB-231 [11] = experiment: Antiproliferative activity against human MDA-MB-231 cells assessed as cell growth inhibition; type: functional, cell-based
HaCaT = experiment: Antiproliferative activity against human HaCaT cells assessed as cell growth inhibition; type: functional, cell-based
IMR-32 = experiment: Cytotoxicity against human IMR-32 cells assessed as cell growth inhibition; type: functional, cell-based
SR = experiment: Cytotoxicity against human SR cells assessed as cell growth inhibition measured after 48 hrs by SRB assay; type: functional
HCT-15 = experiment: Cytotoxicity against human HCT-15 cells assessed as cell growth inhibition measured after 48 hrs by SRB assay; type: functional
KM12 = experiment: Cytotoxicity against human KM12 cells assessed as cell growth inhibition measured after 48 hrs by SRB assay; type: functional
SW-620 = experiment: Cytotoxicity against human SW-620 cells assessed as cell growth inhibition measured after 48 hrs by SRB assay; type: functional
SF-295 = experiment: Cytotoxicity against human SF-295 cells assessed as cell growth inhibition measured after 48 hrs by SRB assay; type: functional
MDA-MB-435 = experiment: Cytotoxicity against human MDA-MB-435 cells assessed as cell growth inhibition measured after 48 hrs by SRB assay; type: functional
SK-MEL-5 = experiment: Cytotoxicity against human SK-MEL-5 cells assessed as cell growth inhibition measured after 48 hrs by SRB assay; type: functional
UACC-62 = experiment: Cytotoxicity against human UACC-62 cells assessed as cell growth inhibition measured after 48 hrs by SRB assay; type: functional
OVCAR-3 = experiment: Cytotoxicity against human OVCAR-3 cells assessed as cell growth inhibition measured after 48 hrs by SRB assay; type: functional
A498 = experiment: Cytotoxicity against human A498 cells assessed as cell growth inhibition measured after 48 hrs by SRB assay; type: functional
PC-3 [12] = experiment: Cytotoxicity against human PC-3 cells assessed as cell growth inhibition measured after 48 hrs by SRB assay; type: functional
MCF7 [13] = experiment: Cytotoxicity against human MCF7 cells assessed as cell growth inhibition measured after 48 hrs by SRB assay; type: functional
MDA-MB-468 = experiment: Cytotoxicity against human MDA-MB-468 cells assessed as cell growth inhibition measured after 48 hrs by SRB assay; type: functional
[14] = target: Epidermal growth factor receptor (Homo sapiens, UniProt P00533); experiment: Inhibition of EGFR (unknown origin)
Epidermal growth factor receptor, sequence (P00533 whole entry): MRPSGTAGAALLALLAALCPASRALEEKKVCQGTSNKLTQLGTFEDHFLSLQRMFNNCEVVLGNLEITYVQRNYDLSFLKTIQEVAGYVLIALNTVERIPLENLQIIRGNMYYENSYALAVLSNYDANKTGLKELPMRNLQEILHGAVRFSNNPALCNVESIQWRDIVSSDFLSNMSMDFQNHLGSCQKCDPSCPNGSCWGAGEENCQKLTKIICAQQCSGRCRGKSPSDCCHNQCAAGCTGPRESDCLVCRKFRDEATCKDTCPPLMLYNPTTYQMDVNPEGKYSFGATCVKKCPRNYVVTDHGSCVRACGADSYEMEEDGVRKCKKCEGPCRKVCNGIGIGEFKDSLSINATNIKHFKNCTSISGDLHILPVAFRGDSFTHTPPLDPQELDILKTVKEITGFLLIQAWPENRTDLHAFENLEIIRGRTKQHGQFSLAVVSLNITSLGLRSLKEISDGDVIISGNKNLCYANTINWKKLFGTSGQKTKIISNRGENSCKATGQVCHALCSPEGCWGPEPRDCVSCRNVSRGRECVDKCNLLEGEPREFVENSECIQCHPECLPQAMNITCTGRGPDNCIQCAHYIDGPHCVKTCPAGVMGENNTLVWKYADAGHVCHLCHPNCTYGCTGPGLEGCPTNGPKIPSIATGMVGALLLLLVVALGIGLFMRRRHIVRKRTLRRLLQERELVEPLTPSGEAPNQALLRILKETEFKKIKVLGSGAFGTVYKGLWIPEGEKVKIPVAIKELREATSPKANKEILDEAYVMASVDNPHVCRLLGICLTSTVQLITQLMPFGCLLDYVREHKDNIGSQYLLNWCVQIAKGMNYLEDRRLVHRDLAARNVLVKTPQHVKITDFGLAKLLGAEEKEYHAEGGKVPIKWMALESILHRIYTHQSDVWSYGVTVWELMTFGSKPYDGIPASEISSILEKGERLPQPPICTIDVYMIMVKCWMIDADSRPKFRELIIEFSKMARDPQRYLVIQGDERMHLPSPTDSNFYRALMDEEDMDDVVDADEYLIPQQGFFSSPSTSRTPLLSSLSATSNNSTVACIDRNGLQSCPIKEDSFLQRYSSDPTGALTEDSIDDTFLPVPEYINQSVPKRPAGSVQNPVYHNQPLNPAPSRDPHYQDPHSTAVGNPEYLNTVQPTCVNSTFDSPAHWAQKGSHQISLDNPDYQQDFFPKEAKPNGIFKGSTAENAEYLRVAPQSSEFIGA

[15] = target: T1, Poly [ADP-ribose] polymerase 1; experiment: Inhibition of PARP1 (unknown origin) incubated for 30 mins by ELISA assay
MDA-MB-231 [16] = experiment: Antiproliferative activity against human MDA-MB-231 cells assessed as cell growth inhibition measured after 48 hrs by WST-1 assay; type: functional, cell-based; conditions: MDA-MB-231, 48 h
MDA-MB-231 [17] = experiment: Potency index, ratio of 5-Fu IC50 to compound IC50 for antiproliferative activity against human MDA-MB-231 cells assessed as cell growth inhibition measured after 48 hrs by WST-1 assay; type: functional
SH-SY5Y = experiment: Anticancer activity against human SH-SY5Y cells assessed as cell growth inhibition measured upto 72 hrs by MTS assay; type: functional, cell-based
Hep 3B2 = experiment: Anticancer activity against human Hep3B cells assessed as cell growth inhibition measured upto 72 hrs by MTS assay; type: functional, cell-based

SMILES: O=C(O)c1ccccc1Nc1ccc2nnc(-c3ccncc3)n2n1
- pIC50 [1]: 3.97

SMILES: O=c1c(Cl)c(Cl)cnn1-c1ccc(Cl)c(C(F)(F)F)c1
- CC50 [2]: 330 nM
- CC50 (MDA-MB-231 [3]): 2630 nM

SMILES: CC(C)[Si](C#Cc1cc(-n2cc(Cn3nc(-c4ccccc4)cc(-c4ccccc4)c3=O)nn2)cc(C#C[Si](C(C)C)(C(C)C)C(C)C)n1)(C(C)C)C(C)C
- IC50 (MCF7 [4]): 3.25 µg/mL
- IC50 (A549): 5 µg/mL (≈ 6.52 µM)

SMILES: CC(C)Nc1ccc2nnc(-c3cc(-c4cnn(C5CCN(CCO)CC5)c4)cnc3N)n2n1
- pIC50 [5]: 7.48
- pIC50 (TMD8): 6.10

SMILES: O=c1[nH]nc(-c2nnc(S)o2)c2ccccc12
- pIC50 (HepG2): 5.35
- pIC50 (MCF7 [6]): 5.31

SMILES: O=C(/C=C/c1cccc([N+](=O)[O-])c1)N1CCN(C(=O)c2cc(Cc3n[nH]c(=O)c4ccccc34)ccc2F)CC1
- pIC50 (MDA-MB-436): 4.93

SMILES: CC1(C)CC(=O)C2=C(C1)n1c(=O)c3ccccc3c(=O)n1C2
- GI50 (PC-3 [7]): 5300 nM
- GI50 (K562): 9400 nM

SMILES: Clc1ccc2nnc(-c3c[nH]c4ccccc34)n2n1
- pIC50 (MCF7 [8]): 5.45
- pIC50 (CCRF-SB): 5.79
- pIC50 (NALM-6): 5.94

SMILES: N=C(N)NS(=O)(=O)c1ccc(Nc2ccc3nc4ccccc4c(=O)n3n2)cc1
- pIC50 (HCT-116): 4.92

SMILES: O=C(NC(Cc1c[nH]c2ccccc12)C1C(=O)N=C2C=CC=NN21)c1ccccc1 (centres undefined)
- pIC50 (A-375): 7.85
- pIC50 (COLO 205): 7.68

SMILES: O=C(Nc1ccc(Oc2nnc(Cl)c3ccccc23)cc1)Nc1ccc(Cl)c(C(F)(F)F)c1
- inhibition at 10 µM (HUVEC): 71.6%

SMILES: O=C(/C=C/c1ccc(CCCCCCc2n[nH]c(=O)c3cc(F)ccc23)cc1)NO
- pIC50 [9]: 8.15
- pIC50 [10]: 7.24

SMILES: COc1ccc(-c2nc(N3N=C(c4ccc(F)cc4)CCC3=O)n(C)c(=O)c2C#N)cc1
- pIC50 (MCF7 [4]): 5.46
- pIC50 (MDA-MB-231 [11]): 5.59
- pIC50 (HaCaT): < 4.30

SMILES: Cc1n[nH]c(=O)c2c1c1cc(F)ccc1n2Cc1cn(C2CCCCC2)nn1
- pIC50 (IMR-32): 7.40

SMILES: CCOC(=O)c1cc(C(=O)c2cc(OC)c(OC)c(OC)c2)n2nc(C)ccc12
- GI50 (SR): 48.1 nM
- GI50 (HCT-15): < 100 nM
- GI50 (KM12): < 100 nM
- GI50 (SW-620): < 100 nM
- GI50 (SF-295): < 100 nM
- GI50 (MDA-MB-435): 25.6 nM
- GI50 (SK-MEL-5): < 100 nM
- GI50 (UACC-62): < 100 nM
- GI50 (OVCAR-3): < 100 nM
- GI50 (A498): < 100 nM
- GI50 (PC-3 [12]): < 100 nM
- GI50 (MCF7 [13]): 48.1 nM
- GI50 (MDA-MB-468): < 100 nM

SMILES: CN(C)c1ccc(/C=N/NC(=O)Cn2nc(Cc3ccc(Cl)cc3)c3ccccc3c2=O)cc1
- pIC50 [14]: 9.35

SMILES: O=C(Nc1nc(-c2ccccc2)cs1)c1ccc(Cc2n[nH]c(=O)c3cccnc23)cc1
- pIC50 [15]: 7.34

SMILES: O=C1Nc2ccc(Cl)cc2/C1=N/Nc1nnc(-c2ccc(Cl)cc2)c2ccccc12
- pIC50 (MDA-MB-231 [16]): 4.92
- Ratio IC50 (MDA-MB-231 [17]): 2.4

SMILES: Cc1cccc(/C=N/NC(=O)Cn2nc(N3CCN(c4ccc(Cl)cc4)CC3)ccc2=O)c1
- pIC50 (SH-SY5Y): 4.63
- pIC50 (Hep 3B2): 4.61
